Test results: US20260042764A1, “COMPOSITIONS AND METHODS FOR INHIBITION OF KRAS” (TheRas, Inc., priority 2022, published 2026)

What was measured:
[1] = tested on: GP2d cells (KRAS G12D); assay: Cell-based pERK HTRF assay in GP2d cell (Biological Example 2); conditions: GP2d, GP2d (KRAS G12D) cells
How it was run: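 Phospho-ERK is measured by HTRF following a 60 min compound exposure at 0.25% DMSO, with a 9-point half-log curve topping at 1 μM or 100 nM.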

[2] = target: T1, Avi-KRAS G12D (2-169) GTP/RAF1 RBD-3xFLAG (51-131) (Homo sapiens, UniProt P01116, G12D); assay: Raf1-KRAS G12D-GTP disruption HTRF assay (Biological Example 3); format: binding; conditions: KRAS G12D, GTP-loaded
T1 construct: Avi-KRAS G12D (2-169)
T1 sequence (P01116 2-169 isoform P01116-2 G12D): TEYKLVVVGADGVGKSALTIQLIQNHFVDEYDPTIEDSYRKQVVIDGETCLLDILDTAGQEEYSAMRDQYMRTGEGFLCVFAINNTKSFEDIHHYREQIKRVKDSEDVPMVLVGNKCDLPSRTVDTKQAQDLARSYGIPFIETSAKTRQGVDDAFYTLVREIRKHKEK
Description: (§1) Biological Example 3: Disrupting RAS-Effector Binding HTRF Assay
(§2) A protein:protein interaction (PPI) Homogeneous Time Resolved Fluorescence (HTRF) assay was used to determine the effectiveness of compounds in disrupting KRAS protein and effector (RAF1) binding.
(§3) The HTRF assay used the following reagents and proteins: (i) 50 nM Avi-KRAS G12D (2-169) GTP/RAF1 RBD-3xFLAG (51-131): (ii) 50 nM Avi-KRAS G12C (2-169) GTP/RAF1 RBD-3xFLAG (51-131): (iii) 50 nM Avi-KRAS G12V (2-169) GTP/RAF1 RBD-3xFLAG (51-131); (iv) 50 nM Avi-KRAS WT (2-169) GTP/RAF1 RBD-3xFLAG (51-131); and (v) 75 nM 3xFLAG-RAF1 RBD (51-131)-Avi. The assay buffer included: 50 mM Tris pH 7.5 (Invitrogen, 15567-027), 100 mM NaCl (Sigma, S5150-IL), 5 mM MgCl2 (Sigma, 63069), 0.1% BSA (Sigma, A7030), 0.01% Tween 20 (Sigma, P7949), 10% DMSO (Cell Signaling, 12611). The bead buffer included: 50 mM Tris pH 7.5 (Invitrogen, 15567-027), 0.01% Tween 20 (Sigma, P7949). An assay volume of 20 μL was used in a 384 well plate-low volume format. Compound titration: 30-0.005 μM, 3x dilution series.
(§4) The HTRF assay employed the following protocol:
(§5) Compounds were dispensed in assay plate (384-well, Grenier Bio-One #784075) using Echo (model 555) with dose response settings: 200 nL final volume, titration from 30 μM as a 10-point dilution series. Proteins and HTRF reagents were mixed and dispensed onto plates, 20 μL per well, and then incubated for 1 h at room temperature, with 700 rpm shaking.
(§6) Plates were analyzed on an Envision plate reader using the following setting: Excitation 320 nm, Bandwidth 75 nm; Emission 615 nm, Bandwidth 85 nm; Gain 100%; Flashes 100; Lag 60 μs. Data was reported as percentage of activity, with DMSO as 100%. Data was plotted and analyzed using Prism 8.
(§7) The biochemical Raf1-KRAS G12D/G12V/G12C/WT-GTP disruption assay IC50 of selected compounds described herein are shown in Table 12.

[3] = target: T2, Avi-KRAS G12C (2-169) GTP/RAF1 RBD-3xFLAG (51-131) (Homo sapiens, UniProt P01116, G12C); assay: Raf1-KRAS G12C-GTP disruption HTRF assay (Biological Example 3); format: binding; conditions: KRAS G12C, GTP-loaded
T2 construct: Avi-KRAS G12C (2-169)
T2 sequence (P01116 2-169 isoform P01116-2 G12C): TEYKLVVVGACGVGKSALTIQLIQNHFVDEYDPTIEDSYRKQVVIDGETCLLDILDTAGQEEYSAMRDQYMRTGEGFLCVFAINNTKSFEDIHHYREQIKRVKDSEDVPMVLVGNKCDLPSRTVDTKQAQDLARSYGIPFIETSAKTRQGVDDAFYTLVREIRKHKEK
Description: as §1, §2, §3, §4, §5, §6, §7

[4] = target: T3, Avi-KRAS G12V (2-169) GTP/RAF1 RBD-3xFLAG (51-131) (Homo sapiens, UniProt P01116, G12V); assay: Raf1-KRAS G12V-GTP disruption HTRF assay (Biological Example 3); format: binding; conditions: KRAS G12V, GTP-loaded
T3 construct: Avi-KRAS G12V (2-169)
T3 sequence (P01116 2-169 isoform P01116-2 G12V): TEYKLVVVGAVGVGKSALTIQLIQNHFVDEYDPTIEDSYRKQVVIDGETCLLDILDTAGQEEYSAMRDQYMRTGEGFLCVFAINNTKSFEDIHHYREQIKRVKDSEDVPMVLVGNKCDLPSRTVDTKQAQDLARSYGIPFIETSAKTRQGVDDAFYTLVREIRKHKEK
Description: as §1, §2, §3, §4, §5, §6, §7

[5] = target: T4, Avi-KRAS WT (2-169) GTP/RAF1 RBD-3xFLAG (51-131) (Homo sapiens, UniProt P01116); assay: Raf1-KRAS WT-GTP disruption HTRF assay (Biological Example 3); format: binding; conditions: KRAS WT, GTP-loaded
T4 construct: Avi-KRAS WT (2-169)
T4 sequence (P01116 2-169 isoform P01116-2): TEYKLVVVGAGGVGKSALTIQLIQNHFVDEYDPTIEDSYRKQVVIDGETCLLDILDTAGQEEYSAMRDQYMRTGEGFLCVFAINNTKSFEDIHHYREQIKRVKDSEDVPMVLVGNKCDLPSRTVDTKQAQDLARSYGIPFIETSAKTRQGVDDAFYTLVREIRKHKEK
Description: as §1, §2, §3, §4, §5, §6, §7

[6] = tested on: SW620 cells (KRAS G12V); assay: Cell-based pERK HTRF assay in SW620 cell (Biological Example 4); conditions: Homo sapiens, SW-620, SW620 (KRAS G12V) cells
How it was run: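 SW620 cells were treated for 4 h with compound in a 9-point half-log series from 1 μM top (0.25% DMSO), then lysed. Phospho-ERK was detected by HTRF with d2 and Eu cryptate antibodies after 4–24 h at room temperature, read at 615 nm emission.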

Compound | IC50 [1] [nM] | IC50 [2] [nM] | IC50 [3] [nM] | IC50 [4] [nM] | IC50 [5] [nM] | IC50 [6] [nM]
CCN(c1nc(OC[C@@]23CCCN2C[C@H](F)C3)nc2c(F)c(-c3ccc(F)c4sc(N)c(C#N)c34)c(C(F)(F)F)cc12)[C@H]1CCN(C(=O)O[C@H](C)C(F)(F)F)C1 (atropisomer, axis not shown) [Compound 850] | < 100 | 100 to 1000 | 100 to 1000 | 1000 to 10000 | 1000 to 10000 | < 100
CCN(c1nc(OC[C@@]23CCCN2C[C@H](F)C3)nc2c(F)c(-c3ccc(F)c4sc(N)c(C#N)c34)c(C(F)(F)F)cc12)[C@H]1CCN(C(=O)N2CC3(CCO3)C2)C1 (atropisomer, axis not shown) [Compound 851] | < 100 | 100 to 1000 | 100 to 1000 | 100 to 1000 | 100 to 1000 | < 100
CCN(c1nc(OCC23CCCN2CC(F)C3)nc2c(F)c(-c3ccc(F)c4sc(N)c(C#N)c34)c(C(F)(F)F)cc12)C1CCN(C(=O)c2nc(C)ns2)C1 (stereo not drawn) [Compound 932] | < 100 | 100 to 1000 | 100 to 1000 | 1000 to 10000 | 1000 to 10000 | < 100
CCN(c1nc(OC[C@@]23CCCN2C[C@H](F)C3)nc2c(F)c(-c3ccc(F)c4sc(N)c(C#N)c34)c(C(F)(F)F)cc12)[C@H]1CCN(C(=O)[C@@H]2CC2(F)F)[C@H]1C (atropisomer, axis not shown) [Compound 887] | < 100 | 1000 to 10000 | 1000 to 10000 | 1000 to 10000 | 1000 to 10000 | 100 to 1000
CCN(c1nc(OC[C@@]23CCCN2C[C@H](F)C3)nc2c(F)c(-c3ccc(F)c4sc(N)c(C#N)c34)c(C(F)(F)F)cc12)[C@H]1CCN(C(=O)C2CC2)[C@@H]1COC (atropisomer, axis not shown) [Compound 925] | < 100 | 100 to 1000 | 100 to 1000 | 100 to 1000 | 100 to 1000 | < 100
CN(Cc1ncoc1C#N)c1nc(OC[C@@]23CCCN2C[C@H](F)C3)nc2c(F)c(-c3ccc(F)c4sc(N)c(C#N)c34)c(C(F)(F)F)cc12 (atropisomer, axis not shown) [Compound 953] | < 100 | 100 to 1000 | 1000 to 10000 | 1000 to 10000 | 1000 to 10000 | 100 to 1000
CCN(c1nc(OC[C@@]23CCCN2C[C@H](F)C3)nc2c(F)c(-c3ccc(F)c4sc(N)c(C#N)c34)c(C(F)(F)F)cc12)[C@@H]1CCN(c2cccn(C)c2=O)C1 [Compound 964] | < 100 | 1000 to 10000 | 1000 to 10000 | 1000 to 10000 | 1000 to 10000 | < 100
CCN(c1nc(OC[C@@]23CCCN2C[C@H](F)C3)nc2c(F)c(-c3ccc(F)c4sc(N)c(C#N)c34)c(C(F)(F)F)cc12)[C@H]1CCN(C(=O)OC2CCOCC2)[C@@H]1C (atropisomer, axis not shown) [Compound 825] | < 100 | 100 to 1000 | 100 to 1000 | 100 to 1000 | 100 to 1000 | < 100
CCN(c1nc(OC[C@@]23CCCN2C[C@H](F)C3)nc2c(F)c(-c3ccc(F)c4sc(N)c(C#N)c34)c(C(F)(F)F)cc12)[C@H]1C[C@H](COC)N(C(=O)OC2COC2)C1 (atropisomer, axis not shown) [Compound 837] | < 100 | 100 to 1000 | 100 to 1000 | 100 to 1000 | 100 to 1000 | < 100
CCN(c1nc(OC[C@@]23CCCN2C[C@H](F)C3)nc2c(F)c(-c3ccc(F)c4sc(N)c(C#N)c34)c(C(F)(F)F)cc12)[C@H]1CCN(C(=O)c2cnc(Cl)s2)C1 (atropisomer, axis not shown) [Compound 905] | < 100 | 100 to 1000 | 100 to 1000 | 100 to 1000 | 1000 to 10000 | < 100
CCN(c1nc(OC[C@@]23CCCN2C[C@H](F)C3)nc2c(F)c(-c3ccc(F)c4sc(N)c(C#N)c34)c(C(F)(F)F)cc12)[C@@H]1CCN(c2ccccn2)C1 [Compound 945] | < 100 | 1000 to 10000 | > 10000 | > 10000 | > 10000 | < 100

Other lines, results leading:

IC50 [1] [nM] | IC50 [2] [nM] | IC50 [3] [nM] | IC50 [4] [nM] | IC50 [5] [nM] | IC50 [6] [nM] | Compound
< 100 | 100 to 1000 | 100 to 1000 | 100 to 1000 | 1000 to 10000 | 100 to 1000 | CN(C)C(=O)N1CC[C@H](N(CCF)c2nc(OC[C@@]34CCCN3C[C@H](F)C4)nc3c(F)c(-c4ccc(F)c5sc(N)c(C#N)c45)c(C(F)(F)F)cc23)C1 (atropisomer, axis not shown) [Compound 828]
< 100 | 100 to 1000 | 1000 to 10000 | 1000 to 10000 | 1000 to 10000 | < 100 | CCN(c1nc(OC[C@@]23CCCN2C[C@H](F)C3)nc2c(F)c(-c3ccc(F)c4sc(N)c(C#N)c34)c(C(F)(F)F)cc12)[C@H]1C[C@@H]2CCCC(=O)N2C1 (atropisomer, axis not shown) [Compound 663]
< 100 | 1000 to 10000 | > 10000 | > 10000 | > 10000 | 100 to 1000 | CCN(c1nc(OC[C@@]23CCCN2C[C@H](F)C3)nc2c(F)c(-c3ccc(F)c4sc(N)c(C#N)c34)c(C(F)(F)F)cc12)[C@H]1C=C[C@@H](C(=O)N(C)C)C1 (atropisomer, axis not shown) [Compound 938]
< 100 | 1000 to 10000 | 1000 to 10000 | 1000 to 10000 | 1000 to 10000 | < 100 | CCN(c1nc(OC[C@@]23CCCN2C[C@H](F)C3)nc2c(F)c(-c3ccc(F)c4sc(N)c(C#N)c34)c(C(F)(F)F)cc12)[C@@H]1C=C[C@H](C(=O)N(C)C)C1 (atropisomer, axis not shown) [Compound 937]
< 100 | ≤ 100 | 100 to 1000 | 100 to 1000 | 100 to 1000 | < 100 | CCN(c1nc(OC[C@@]23CCCN2C[C@H](F)C3)nc2c(F)c(-c3ccc(F)c4sc(N)c(C#N)c34)c(C(F)(F)F)cc12)[C@H]1CCN(C(=O)C2COC2)[C@@H]1C (atropisomer, axis not shown) [Compound 833]
< 100 | ≤ 100 | ≤ 100 | ≤ 100 | 100 to 1000 | < 100 | CCN(c1nc(OC[C@@]23CCCN2C[C@H](F)C3)nc2c(F)c(-c3ccc(F)c4sc(N)c(C#N)c34)c(C(F)(F)F)cc12)C1CCN(C(=O)C2CC2)C1 (stereo partly drawn) [Compound 903]
> 1000 | 1000 to 10000 | > 10000 | > 10000 | 1000 to 10000 | > 1000 | CN(CC1COC1)c1nc(OC[C@@]23CCCN2C[C@H](F)C3)nc2c(F)c(-c3ccc(F)c4sc(N)c(C#N)c34)c(C(F)(F)F)cc12 (atropisomer, axis not shown) [Compound 963]
